According to paper PMC10703884, “Targeting the COMMD4–H2B protein complex in lung cancer” (British Journal of Cancer, 2023):
Entries after “also recorded” stand apart in the source; their conditions may differ. No end group written: not given here.

What was measured:
[1] = system: HBEC3-KT cells; test: Immunofluorescence γH2AX and MDC1 foci, HBEC3-KT cells; format: cell-based, Human; settings: 6 Gy IR, 50 cells per condition, three independent experiments
Method: (§1) For siRNA transfections, cells were transfected with negative control or COMMD4 siRNA #2 (CCAUGUCCCUCUCAGCAGA[dT][dT] MISSION® siRNA, Sigma-Aldrich) using RNAiMax (Life Technologies) as previously described and samples were analysed 48 to 72 h post-transfection. The H2B wild-type (FLAG-H2BWT) and mutant (FLAG-H2BMUT1) expression constructs were generated with the 10-amino acid peptide and the corresponding mutant cloned into the expression vector pCDNA3.1/(+)-N-DYK containing an N-terminal FLAG tag and a C-terminal nuclear localisation signal (AAKRVKLDS) (GenScript). A70K FLAG-COMMD4 expression construct was generated by mutating the corresponding COMMD4-FLAG construct to harbour an A70K mutation (GenScript). Cells were mock-transfected, or transfected with FLAG-H2BWT/FLAG-H2BMUT1, or COMMD4-FLAG/A70K with FuGENE® HD (Promega) using the manufacturer’s protocol and analysed 24 h post-transfection.
NSCLC and control cells transfected with siRNA or H2B plasmids were grown in optical glass bottom 96-well plates (Cellvis). Post-treatment, cells were pre-extracted with ice-cold extraction buffer (20 mM HEPES (pH 8), 20 mM NaCl, 5 mM MgCl2, 1 mM ATP, 0.5% NP40), to remove the soluble proteins and processed as previous. […] Images were analysed using the InCarta Image Analysis software (GE Healthcare Life Sciences) where a minimum of 50 nuclei were quantified per experiment. […]

[2] = system: NSCLC cells; test: Immunofluorescence γH2AX and MDC1 foci, NSCLC cells; format: cell-based; settings: 6 Gy IR, 0.5 to 2 h post-IR, 50 cells per condition, three independent experiments
Method: as §1
NSCLC and control cells transfected with siRNA or H2B plasmids were grown in optical glass bottom 96-well plates (Cellvis). Post-treatment, cells were pre-extracted with ice-cold extraction buffer (20 mM HEPES (pH 8), 20 mM NaCl, 5 mM MgCl2, 1 mM ATP, 0.5% NP40), to remove the soluble proteins and processed as previous. Images were captured using a Delta Vision PDV microscope 100x/1.42 Oil objective (Applied Precision, Inc). All immunofluorescence figures were assembled using Adobe Photoshop. High-content microscopy was performed using the InCell Analyzer 6500 Imaging System (GE Healthcare Life Sciences). Images were analysed using the InCarta Image Analysis software (GE Healthcare Life Sciences) where a minimum of 50 nuclei were quantified per experiment.
Fig. 4 Induction of DSBs in NSCLC and control cells. a Immunofluorescence staining of H1299 NSCLC cells transfected with control or COMMD4 siRNA #2 and FLAG-H2BWT or FLAG-H2BMUT1 is shown. […]
independent experiments where 50 cells were quantified per condition. γH2AX is shown in […]
mean ± SD from three independent experiments where 50 cells were quantified per condition.

[3] = system: NSCLC cells; test: Mitotic catastrophe (emerin and phalloidin staining), NSCLC cells; format: cell-based; settings: 100 cells counted
Method: as §1, with “A70K FLAG-COMMD4 expression construct was generated by mutating the corresponding COMMD4-FLAG construct to harbour an A70K mutation (GenScript).” left out
(§2) NSCLC cells were grown in 96-well plates as above and stained with anti-emerin antibody and phalloidin. Mitotic catastrophe was scored as previous. A minimum of 100 cells for each experimental condition were assessed to determine the percentage of aberrant nuclei.
(§3) As previously determined, in this study, we used two markers to determine mitotic catastrophe: emerin staining of the nuclear envelope and phalloidin staining of the F-actin cytoskeleton. […] We subsequently measured apoptosis by staining for Annexin V and propidium iodide via flow cytometry in FLAG-H2B WT, FLAG-H2BMUT1 and mock-transfected control and NSCLC cells (Fig. 5c, d). […]

[4] = system: HBEC3-KT cells; test: Mitotic catastrophe (emerin and phalloidin staining), HBEC3-KT cells; format: cell-based, Human; settings: 100 cells counted
Method: as §1, with “A70K FLAG-COMMD4 expression construct was generated by mutating the corresponding COMMD4-FLAG construct to harbour an A70K mutation (GenScript).” left out
as §2, §3

[5] = system: HBEC3-KT cells; test: Annexin V-FITC / propidium iodide apoptosis, HBEC3-KT cells; format: cell-based, Human; settings: flow cytometry, three independent experiments
Method: as §1, with “A70K FLAG-COMMD4 expression construct was generated by mutating the corresponding COMMD4-FLAG construct to harbour an A70K mutation (GenScript).” left out
The Annexin V-FITC apoptosis kit (United Bioresearch, ALX-850-020-K101, Enzo Life Sciences, Farmingdale, NY, USA) was used to measure viable and apoptotic cells, as previously described. […] CytExpert 2.0 software was used for data acquisition and analysed using the FlowJo v10 software.
Fig. 5 Induction of mitotic catastrophe and apoptosis in NSCLC cells. a Emerin and phalloidin staining respectively in three NSCLC and control HBEC3-KT cells. […] Asterix (*) denotes *P < 0.05 and ** P < 0.005 from 100 cells counted. […] The live cells were stained with Annexin V-FITC and propidium iodide and analysed by flow cytometer. […]

FLAG-H2BWT: 10-amino acid peptide cloned into expression vector containing an N-terminal FLAG tag and a C-terminal nuclear localisation signal ({FLAG}-SFVNDIFERIAAKRVKLDS)
γH2AX and MDC1 (DNA repair) foci [1]: exhibited increased DNA repair foci
γH2AX and MDC1 (DNA repair) foci [2]: significantly more DNA repair foci
aberrant nuclei / mitotic catastrophe [3]: significantly more aberrant nuclei, indicative of mitotic catastrophe induction, relative to FLAG-H2BMUT1; also recorded: significantly more mitotic catastrophe than control cells
aberrant nuclei / mitotic catastrophe [4]: also underwent mitotic catastrophe, but to a lesser extent than the NSCLC cell lines
induction of apoptosis [5]: no significant induction of apoptosis
